Laboratory results: patent US7741337B2, “Azonafide derivatives, methods for their production and pharmaceutical compositions therefrom” (Unibioscreen S.A., priority 2005, dated 2010)
Where a name gives a salt, the structure may show the parent alone.

These compounds were tested on human cancer cell lines Hs683, U-373MG, HCT-15, LoVo, A549 and MCF-7 (assay: MTT test, effect on overall cell growth (mean of six cell lines, examples 3 to 26)). Details: mean of six cell lines Hs683, U-373MG, A549, MCF-7, 72 hours incubation, range of molar concentrations resulting in 50% inhibition of overall tumor cells growth.
Assay type: cell-based
Description: (§1) MTT tests were performed in order to rapidly, i.e. within 5 days, measure the effect of azonafide derivatives of this invention on the overall cell growth. The test measures the number of metabolically active living cells that are able to transform the yellow product 3-(4,5-dimethylthiazol-2-yl)-2,5-diphenyl tetrazolium bromide (herein referred as MTT) into the blue product formazan dye by mitochondrial reduction. The amount of formazan obtained at the end of the experiment, measured by means of a spectrophotometer, is directly proportional to the number of living cells. Optical density determination thus enables a quantitative measurement of the effect of the investigated compounds as compared to the control condition (untreated cells) and/or to other reference compounds.
(§2) Height human cancer cell lines described in table 1 were used in the following MTT tests. These cell lines cover six histological cancer types, being prostate, glioma, pancreas, colon, lung and breast cancers. Cells were allowed to grow in 96-well micro-wells with a flat bottom with an amount of 100 μl of cell suspension per well with 1,000 to 4,000 cells/well depending on the cell type used. Each cell line was seeded in a well known MEM 5% serum culture medium.
(§3) The detailed experimental procedure was as following: after a 24-hour period of incubation at 37° C., the culture medium was replaced by 100 μl of fresh medium in which the compound to be tested was dissolved at the following molar concentrations: 10^−9 M, 5.10^−9 M, 10^−8 M, 5.10^−8 M, 10^−7 M, 5.10^−7 M, 10^−6 M, 5.10^−6 M and 10^−5 M. Each experiment was repeated 6 times.
(§4) After 72 hours of incubation at 37° C. with (experimental conditions) or without (control condition) the compound to be tested, the medium was replaced by 100 μl MTT dissolved in RPMI at a concentration of 1 mg/ml. The micro-wells were subsequently incubated during 3 hours at 37° C. and centrifuged at 400 g during 10 minutes. MTT was removed and formazan crystals formed were dissolved in 100 μl DMSO. The micro-wells were shaken for 5 minutes and read on a spectrophotometer at wavelengths of 570 nm (maximum formazan absorbance) and 630 nm (back-ground noise).
(§5) For each experimental condition, the mean optical density was calculated, as well as the percentage of remaining living cells in comparison with the control.
(§6) IC50 values for compounds of examples 3 to 26 were obtained on cell lines Hs683, U-373MG, HCT-15, LoVo, A549 and MCF-7 described in Table 1. IC50 values for compounds from examples 27 to 45 were obtained on cell lines PC3, U-373MG, BxPC3, LoVo, A549 and MCF-7 described in Table 1.

IC50 | SMILES
> 10 µM | CN(C)CCN1C(=O)c2cccc3cc4c(NC(=O)Nc5ccc6c(c5)OCO6)cccc4c(c23)C1=O [Example 14, 1-(1,3-benzodioxol-5-yl)-3-{2-[2-(dimethylamino)ethyl]-1,3-dioxo-2,3-dihydro-1H-dibenzo[de,h]isoquinolin-8-yl}urea]
> 10 µM | CCOC(=O)CCC(=O)CC(=O)Nc1cccc2cc3cccc4c3c(c12)C(=O)N(CCN(C)C)C4=O [Example 23, ethyl 6-({2-[2-(dimethylamino)ethyl]-1,3-dioxo-2,3-dihydro-1H-dibenzo[de,h]isoquinolin-11-yl}amino)-4,6-dioxohexanoate]
1 to 5 µM | CN(C)CCN1C(=O)c2cccc3cc4c(NC(=O)NC(=O)c5ccccc5)cccc4c(c23)C1=O [Example 16, N-({2-[2-(dimethylamino)ethyl]-1,3-dioxo-2,3-dihydro-1H-dibenzo[de,h]isoquinolin-8-yl}carbamoyl)benzamide hydrochloride]
> 10 µM | CN(C)CCN1C(=O)c2cccc3cc4cccc(NC(=O)CC(=O)CCc5ccccc5)c4c(c23)C1=O [Example 22, N-{2-[2-(dimethylamino)ethyl]-1,3-dioxo-2,3-dihydro-1H-dibenzo[de,h]isoquinolin-11-yl}-3-oxo-5-phenylpentanamide]
> 10 µM | CCCCCCCCCC(=O)CC(=O)Nc1cccc2cc3cccc4c3c(c12)C(=O)N(CCN(C)C)C4=O [Example 20, N-{2-[2-(dimethylamino)ethyl]-1,3-dioxo-2,3-dihydro-1H-dibenzo[de,h]isoquinolin-11-yl}-3-oxododecanamide]
1 to 5 µM | CN(C)CCN1C(=O)c2cccc3cc4c(N)cccc4c(c23)C1=O [Example 4, 8-amino-2-[2-(dimethylamino)ethyl]-1H-dibenzo[de,h]isoquinoline-1,3(2H)-dione, reference compound]

SMILES | IC50
CN(C)CCN1C(=O)c2cccc3cc4cccc(NC(=O)Oc5ccccc5)c4c(c23)C1=O [Example 18, phenyl {2-[2-(dimethylamino)ethyl]-1,3-dioxo-2,3-dihydro-1H-dibenzo[de,h]isoquinolin-11-yl}carbamate] | > 10 µM

These compounds were tested on U-373 MG, PC-3 and/or A549 cancer cells (assay: Effect on cell migration, summary of table 3). Details: U-373 MG, PC-3 and/or A549 cancer cells at the non-cytotoxic concentrations of this study.
Assay type: cell-based, human
Description: (§7) Cells of different cancer lines, i.e. U-373 MG (Glioma cancer), PC3 (prostate cancer and A549 (Lung cancer) were seeded on culture flask 48 hours before the migration experiment. On the test day, cells were treated with or without the azonafide derivatives mentioned in table 3 in closed Falcon dishes containing a buffered medium at a controlled temperature (37.0±0.1° C.) for 12 or 22 hours, as noted in the right column of table 3. The azonafide derivatives were used at three non-cytotoxic concentrations (10^−6 M, 10^−7, 10^−8 M). Migration of the cells was observed by means of a CCD-camera mounted on a phase-contrast microscope. Statistical analysis of the migration, with the non-parametric Mann-Whitney test, was established for 25% and 50% of the most motile cells and for the entire cell population.

SMILES | migration level of cancer cells
CN(C)CCN1C(=O)c2cccc3cc4c(NC(=O)Nc5ccc6c(c5)OCO6)cccc4c(c23)C1=O [Example 14, 1-(1,3-benzodioxol-5-yl)-3-{2-[2-(dimethylamino)ethyl]-1,3-dioxo-2,3-dihydro-1H-dibenzo[de,h]isoquinolin-8-yl}urea] | induced a decrease in the migration level
C=CCOC(=O)Nc1cccc2cc3cccc4c3c(c12)C(=O)N(CCN(C)C)C4=O [Example 26, allyl {2-[2-(dimethylamino)ethyl]-1,3-dioxo-2,3-dihydro-1H-dibenzo[de,h]isoquinolin-11-yl}carbamate] | induced a decrease in the migration level

Same assay, conditions: comparison drawn from table 3

SMILES | cell migration activity compared with the closest compounds known in the art
C=CCOC(=O)Nc1cccc2cc3cccc4c3c(c12)C(=O)N(CCN(C)C)C4=O [Example 26, allyl {2-[2-(dimethylamino)ethyl]-1,3-dioxo-2,3-dihydro-1H-dibenzo[de,h]isoquinolin-11-yl}carbamate] | significantly greater cell migration activity than the closest compounds known in the art, or similar cell migration activity at significantly lower concentrations

Each compound was assayed on human cancer cell lines PC3, U-373MG, BxPC3, LoVo, A549 and MCF-7 (assay: MTT test, effect on overall cell growth (mean of six cell lines, examples 27 to 45)). Details: mean of six cell lines PC3, U-373MG, A549, MCF-7, 72 hours incubation, range of molar concentrations resulting in 50% inhibition of overall tumor cells growth.
Assay type: cell-based
Description: as §1, §2, §3, §4, §5, §6

IC50 | SMILES
> 10 µM | CC(C)c1ccc(NC(=S)Nc2cccc3cc4cccc5c4c(c23)C(=O)N(CCN(C)C)C5=O)cc1 [Example 33, 1-{2-[2-(dimethylamino)ethyl]-1,3-dioxo-2,3-dihydro-1H-dibenzo[de,h]isoquinolin-11-yl}-3-[4-isopropylphenyl]thiourea]
5 to 10 µM | COCCNC(=S)Nc1cccc2cc3cccc4c3c(c12)C(=O)N(CCN(C)C)C4=O [Example 32, 1-{2-[2-(dimethylamino)ethyl]-1,3-dioxo-2,3-dihydro-1H-dibenzo[de,h]isoquinolin-11-yl}-3-[2-methoxyethyl]thiourea]
> 10 µM | CCNC(=S)Nc1cccc2cc3cccc4c3c(c12)C(=O)N(CCN(C)C)C4=O [Example 35, 1-{2-[2-(dimethylamino)ethyl]-1,3-dioxo-2,3-dihydro-1H-dibenzo[de,h]isoquinolin-11-yl}-3-[ethyl]thiourea]
> 10 µM | CN(C)CCN1C(=O)c2cccc3cc4cccc(NC(=S)Nc5cccnc5)c4c(c23)C1=O [Example 38, 1-{2-[2-(dimethylamino)ethyl]-1,3-dioxo-2,3-dihydro-1H-dibenzo[de,h]isoquinolin-11-yl}-3-[3-pyridyl]thiourea]
> 10 µM | CN(C)CCN1C(=O)c2cccc3cc4cccc(NC(=S)Nc5ccc(Br)cc5)c4c(c23)C1=O [Example 30, 1-{2-[2-(dimethylamino)ethyl]-1,3-dioxo-2,3-dihydro-1H-dibenzo[de,h]isoquinolin-11-yl}-3-[4-bromophenyl]thiourea]
> 10 µM | CN(C)CCN1C(=O)c2cccc3cc4cccc(NC(=S)Nc5ccc(Br)cc5OC(F)(F)F)c4c(c23)C1=O [Example 39, 1-{2-[2-(dimethylamino)ethyl]-1,3-dioxo-2,3-dihydro-1H-dibenzo[de,h]isoquinolin-11-yl}-3-[2-trifluoromethoxy4-bromophenyl]thiourea]

Second part, the compound before the results:

SMILES | IC50
C=CCNC(=S)Nc1cccc2cc3cccc4c3c(c12)C(=O)N(CCN(C)C)C4=O [Example 36, 1-{2-[2-(dimethylamino)ethyl]-1,3-dioxo-2,3-dihydro-1H-dibenzo[de,h]isoquinolin-11-yl}-3-[allyl]thiourea] | > 10 µM
CN(C)CCN1C(=O)c2cccc3cc4cccc(NC(=S)Nc5ccc(C(F)(F)F)cc5)c4c(c23)C1=O [Example 41, 1-{2-[2-(dimethylamino)ethyl]-1,3-dioxo-2,3-dihydro-1H-dibenzo[de,h]isoquinolin-11-yl}-3-[4-trifluoromethylphenyl]thiourea] | 1 to 5 µM
COc1ccccc1NC(=S)Nc1cccc2cc3cccc4c3c(c12)C(=O)N(CCN(C)C)C4=O [Example 37, 1-{2-[2-(dimethylamino)ethyl]-1,3-dioxo-2,3-dihydro-1H-dibenzo[de,h]isoquinolin-11-yl}-3-[2-methoxyphenyl]thiourea] | > 10 µM
COc1ccc(NC(=S)Nc2cccc3cc4cccc5c4c(c23)C(=O)N(CCN(C)C)C5=O)cc1 [Example 34, 1-{2-[2-(dimethylamino)ethyl]-1,3-dioxo-2,3-dihydro-1H-dibenzo[de,h]isoquinolin-11-yl}-3-[4-methoxyphenyl]thiourea] | > 10 µM
CN(C)CCN1C(=O)c2cccc3cc4cccc(NC(=S)Nc5ccc6nsnc6c5)c4c(c23)C1=O [Example 43, 1-(2,1,3-Benzothiadiazol-5-yl)-3-{2-[2-(dimethylamino)ethyl]-1,3-dioxo-2,3-dihydro-1H-dibenzo[de,h]isoquinolin-11-yl}thiourea] | 1 to 5 µM
CN(C)CCN1C(=O)c2cccc3cc4cccc(NC(=S)Nc5ccccc5OC(F)(F)F)c4c(c23)C1=O [Example 45, 1-{2-[2-(dimethylamino)ethyl]-1,3-dioxo-2,3-dihydro-1H-dibenzo[de,h]isoquinolin-11-yl}-3-[2-(trifluoromethoxy)phenyl]thiourea] | > 10 µM
CN(C)CCN1C(=O)c2cccc3cc4cccc(NC(=S)NCc5ccco5)c4c(c23)C1=O [Example 40, 1-{2-[2-(dimethylamino)ethyl]-1,3-dioxo-2,3-dihydro-1H-dibenzo[de,h]isoquinolin-11-yl}-3-[2-furylmethyl]thiourea] | 1 to 5 µM
CN(C)CCN1C(=O)c2cccc3cc4cccc(NC(=O)OCCCCCl)c4c(c23)C1=O [Example 28, 4-chlorobutyl {2-[2-(dimethylamino)ethyl]-1,3-dioxo-2,3-dihydro-1H-dibenzo[de,h]isoquinolin-11-yl}carbamate] | > 10 µM

Each compound was assayed on A549 (Lung cancer) cells (assay: Effect on cell migration, A549). Details: Homo sapiens, 22 hours on the 25% of most motile cells, at 10^−6 M, p value in same cell, read-out: Maximum effects (cell migration).
Assay type: cell-based
Description: as §7

SMILES | Emax at 1 µM
CN(C)CCN1C(=O)c2cccc3cc4c(NC(=O)Nc5ccc6c(c5)OCO6)cccc4c(c23)C1=O [Example 14, 1-(1,3-benzodioxol-5-yl)-3-{2-[2-(dimethylamino)ethyl]-1,3-dioxo-2,3-dihydro-1H-dibenzo[de,h]isoquinolin-8-yl}urea] | -24%

Same assay, conditions: Homo sapiens, 22 hours on the 25% of most motile cells, at 10^−8 M, p value in same cell, read-out: Maximum effects (cell migration)

SMILES | Emax at 0.01 µM
C=CCOC(=O)Nc1cccc2cc3cccc4c3c(c12)C(=O)N(CCN(C)C)C4=O [Example 26, allyl {2-[2-(dimethylamino)ethyl]-1,3-dioxo-2,3-dihydro-1H-dibenzo[de,h]isoquinolin-11-yl}carbamate] | -29%
